Holding throughout (test): NCI-60 cell line screen, 48 h
The test system of assay [1] is UACC-62 melanoma.
The subject of assay [2] is HCT-116 colon.
Assay [3] has as its system SNB-19 CNS.
Assay [4] has as its system MDA-N.
Assay [5] deals with HCT-15 colon.
The subject of assay [6] is CCRF-CEM leukemia.
Assay [7] has as its system BT-549 breast.
In assay [8] the test system is NCI-H522 lung.
Assay [9] concerns SK-OV-3 ovarian.
Assay [10] has as its system SN12C renal.
Assay [11] concerns UO-31 renal.
The test system of assay [12] is A549 NSCLC.
Assay [13] relates to NCI-H460 lung.
The subject of assay [14] is HOP-92 NSCLC.

Data on seven compounds can be found in PubChem BioAssay (NCI).

The structures appear in SMILES notation.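 Results reflect a 48-hour exposure of cells in 96-well plates to compound at five concentrations. Definition used: TGI = concentration required for complete inhibition of growth.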

For `C=CC[C@H]1[C@H](O[Si](C)(C)C(C)(C)C)C=CC(=O)[C@@H]1CC(=O)OCC`, the TGI in assay [1] stood at 24.1 µM; in assay [2] it was 23.5 µM; in assay [3], 25.7 µM; in assay [4], 29.1 µM; in assay [5], 26.6 µM; in assay [6], 29.9 µM. The TGI came to 30.3 µM in [7]; 26.1 µM in [8]; 34.1 µM in assay [9]; 29.9 µM in [10]; 25.6 µM in [11]; 23.9 µM in [12]. Moreover, the TGI came out at 27.6 µM in assay [13] and 24.2 µM in assay [14].

On to `Cc1ccc(-n2cc(-c3ccc(Cl)cc3)c(C#N)c2N)cc1`, for which the TGI in assay [1] is 29.9 µM; in assay [2], 27.1 µM; in [3] it was 38.1 µM; in assay [4], 32.5 µM; in assay [5], 25 µM; in [6], over 100 µM. In addition, the TGI is 32.1 µM in [7]; 24.7 µM in assay [8]; 43.4 µM in assay [9]; 28 µM in assay [10]; 26.5 µM in assay [11]; 43.2 µM in assay [12]. The figures for the TGI in [13] and in assay [14] were 30.4 µM and 31.5 µM, respectively.

`O=c1c(Sc2ncccn2)c(Sc2ncccn2)cnn1CCl`: the TGI in assay [1] came out at 19 µM; in [2] it was 3.89 µM; in assay [3], 32.8 µM; in [4], 5.59 µM; in assay [5], 11.8 µM; in assay [6] it was 7.68 µM. Besides, the TGI in assay [7] amounted to 31 µM; in [8], 2.37 µM; in assay [9], 23.2 µM; in assay [10] it was 9.37 µM; in [11] it was 3.45 µM; in assay [12], 35.5 µM. Besides, the TGI in assay [13] is 32.9 µM; in assay [14] it was 7.38 µM.

For the compound `NCCC1([N+](=O)[O-])CCNCC1`, the TGI in assay [1], in assay [2], in assay [3], in assay [4], in assay [5] and in assay [6] was over 100 µM in each case. The TGI in assay [7], in assay [8], in assay [9], in assay [10], in assay [11] and in assay [12] was over 100 µM throughout. Also, the TGI in assay [13] and in assay [14] was over 100 µM each time.

As to `CCOP(=O)(OCC)C(=C1C=C(C(C)(C)C)C(=O)C(C(C)(C)C)=C1)P(=O)(OCC)OCC`, the TGI in assay [1] was over 10 µM; in assay [2] it was 5.67 µM; in [3] it was over 10 µM; in assay [4] it was over 9.4 µM; in [5] it was over 6.87 µM; in assay [6], over 6.32 µM. In addition, the TGI in assay [7] is 5.16 µM; in [8] it was 4.29 µM; in assay [9], over 10 µM; in assay [10] it was over 10 µM; in assay [11], over 10 µM; in [12], over 10 µM. For the same compound, the TGI was over 10 µM in [13] and 6.37 µM in assay [14].

For the compound `CC1=C(C(=O)NC(C)(C)C)CC(C(=O)NC(C)(C)C)C(C)N1` (stereo not drawn), the TGI in assay [1], in assay [2], in [3], in assay [4], in [5] and in assay [6] was over 100 µM each time. Besides, the TGI in assay [7], in assay [8], in assay [9], in assay [10], in assay [11] and in assay [12] was over 100 µM throughout. For the same compound, the TGI in assay [13] and in assay [14] was over 100 µM each time.

For `Oc1ccccc1-n1nc2ccc3nonc3c2n1`, the TGI in assay [1], in assay [2], in assay [3], in assay [4], in [5] and in assay [6] was over 100 µM each time. Besides, the TGI in assay [7], in [8], in assay [9], in [10], in assay [11] and in assay [12] was over 100 µM each time. Also, the TGI in [13] and in assay [14] was over 100 µM throughout.
